Legend:
[1] = test system: CYP3A4 mRNA expression; test: Co-treatment pharmacological assay: CYP3A4 mRNA by qRT-PCR in HepaRG cells co-treated with rifampicin; assay type: cell-based, human; settings: for inhibition of CYP3A4 mRNA expression under rifampicin co-treatment (in words): IC50, IC70 or IC90 concentration + 5 μM rifampicin
Experimental: Fully differentiated NoSpin™ HepaRG™ cells (Lonza, Walkersville, Maryland) were seeded into 12-well collagen-coated plates (Corning) at a density of 8 × 10^5 cells/well using Williams’ E medium (ThermoFisher) supplemented with HepaRG™ thawing and plating medium supplement (Lonza), 25 U/mL penicillin, and 25 μg/mL streptomycin (Invitrogen). The cells were then placed into a 37°C and 5% CO2 incubator for 3 days including a media change before treatment. Cells were then treated with the vehicle control (final concentration of 0.1% DMSO), the positive controls, or test compounds for 24 h before harvesting.
Total RNA was extracted from the cell lysate using an RNeasy Mini kit (Qiagen) according to the manufacturer’s instructions. RNA was reverse transcribed to cDNA using a High-Capacity RNA-to-cDNA kit (Applied Biosystems). CYP3A4 and CYP2B6 mRNA expression were both measured and normalized to the glyceraldehyde-3-phosphate dehydrogenase (GAPDH) housekeeping gene. Real-time PCR was completed using a QuantStudio Real-Time PCR system (Applied Biosystems) with TaqMan probes (CYP3A4 Assay ID: Hs00604506_m1, CYP2B6 Assay ID: Hs04183483_g1, GAPDH Assay ID: Hs99999905_m1, ThermoFisher Scientific, Waltham, MA). Following amplification, induction values were calculated using the equation: Fold = 2^−ΔΔCt, where ΔCt represents the difference in number of cycles required to reach the Ct threshold between CYP3A4 or CYP2B6 and GAPDH, and ΔΔCt represents the relative change in these differences between the control (DMSO) and treatment groups. Experimental data are expressed as a mean of triplicate values ±SD. Statistical analysis was performed using one-way analysis of variance with post hoc Dunnett’s analysis. The statistical significance values were set at p < 0.05 (*), p < 0.01 (**), and p < 0.001 (***).
As previously mentioned, HepG2 cells are not metabolically competent and therefore use of HepaRG cells or human primary hepatocytes is a better choice to confirm PXR antagonists. […]

[2] = biological target: T1, hPXR (Homo sapiens, UniProt O75469); test: Pharmacological inhibition (IC50 shift) assay with varying rifampicin in HepG2-CYP3A4-hPXR cells; assay type: cell-based; settings: for shift in IC50 values with increasing rifampicin (in words): 5 μM, 7.5 µM or 10 µM rifampicin; for decrease in potency: co-treated with 2 µM versus 10 µM rifampicin; for IC50: triplicate
T1 construct: expressed in transfected cells; provided by Dr. Taosheng Chen, St. Jude
T1 sequence (O75469 1-434): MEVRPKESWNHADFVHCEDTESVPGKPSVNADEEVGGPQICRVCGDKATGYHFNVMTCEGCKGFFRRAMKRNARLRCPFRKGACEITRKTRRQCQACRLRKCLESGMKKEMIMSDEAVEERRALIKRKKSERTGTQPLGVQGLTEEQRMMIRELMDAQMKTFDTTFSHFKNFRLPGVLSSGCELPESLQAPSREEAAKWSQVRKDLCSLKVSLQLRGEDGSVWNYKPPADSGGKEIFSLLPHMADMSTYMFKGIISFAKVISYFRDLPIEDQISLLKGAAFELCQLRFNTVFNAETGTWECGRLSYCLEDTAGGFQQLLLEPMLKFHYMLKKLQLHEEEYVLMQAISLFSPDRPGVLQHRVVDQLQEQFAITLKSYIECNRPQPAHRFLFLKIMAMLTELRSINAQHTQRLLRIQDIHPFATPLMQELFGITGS
Experimental: HepG2-CYP3A4-hPXR cells were dispensed into tissue culture treated 1536-well white assay plates (Greiner Bio-One North America, Monroe, NC) using a Multidrop Combi (Thermo Fisher Scientific Inc., Waltham, Massachusetts) at 2,500 cells/4 µL/well. The cell suspension was prepared using new assay media, which contained phenol red-free DMEM (GIBCO), 5% charcoal/dextran-treated FBS (Invitrogen), 1 mM sodium pyruvate (Invitrogen), 2 mM L-Glutamine (Invitrogen), and 100 U/mL of Penicillin and 100 μg/mL of Streptomycin (Invitrogen). All plates were then incubated for 4 h in a 37°C and 5% CO2 incubator. […] In the primary screen, each compound was tested at 7 concentrations ranging from 46 μM to 1.5 nM. 1 μL of rifampicin, a known PXR agonist, was also co-treated in each well, generating a final concentration of 2 μM, using a Flying Reagent Dispenser (Aurora Discovery, Carlsbad, California). All assay plates were placed in an incubator at 37°C with 5% CO2 for 23 h. Following the incubation period, 1 µL of CellTiter-Fluor reagent (Promega, Madison, Wisconsin) was added to each well and all assay plates were placed back into the incubator set at 37°C and 5% CO2 for 1 h. Fluorescence intensity at 540 nm was measured following excitation at 405 nm using a ViewLux plate reader (Perkin Elmer, Shelton, Connecticut), in order to assess cell viability following treatment. Directly after the fluorescent read, 4 μL of ONE-Glo Luciferase reagent (Promega, Madison, Wisconsin) was added to each well using a Flying Reagent Dispenser, and plates were left to sit at room temperature for 30 min. The luminescence of each plate was then measured using the ViewLux plate reader and data were expressed as relative luminescence units. Gross assay performance was assessed by calculating quality metrics, such as coefficient of variance (CV), signal-to-background ratio (S/B), and Z′ factor, a measure of statistical effect size frequently used to judge whether an assay can be scaled up to a large high-throughput screen ([Zhang et al., 1999]).
Each curve was co-treated with 5 μM RIF, 7.5 μM RIF, or 10 μM RIF (a well-known PXR agonist) to determine pharmacological activity. […] Each curve was generated from a combination of all data points together.

CYP3A4 mRNA expression, average level ([1]; 15 μM compound + 5 μM rifampicin, DMSO = 1) [fold]	shift in IC50 values with increasing rifampicin (in words) [2]	decrease in potency [2]	IC50 ([2]; co-treated with 5 μM RIF) [µM]	IC50 ([2]; co-treated with 7.5 μM RIF) [µM]	IC50 ([2]; co-treated with 10 μM RIF) [µM]	Structure (SMILES)	inhibition of CYP3A4 mRNA expression under rifampicin co-treatment (in words) [1]
0.6	generated a shift in IC50 values	more than 2 fold	1.6	3.32	5.46	COc1cc(-c2cn(C3CCc4c(F)cccc4N(CC(F)(F)F)C3=O)nn2)ccc1-n1cnc(C)c1 (stereo not shown) [GSM2]	clear concentration dependent inhibition of CYP3A4 mRNA expression
	generated a shift in IC50 values	more than 2 fold	3.46	4.57	7.76	CC(=O)O[C@H]1C[C@@]2(C)[C@@H](C[C@@H](O)[C@H]3[C@@]4(C)CC[C@@H](O)[C@@H](C)[C@@H]4CC[C@@]32C)/C1=C(\CCC=C(C)C)C(=O)O [fusidic acid]	clear concentration dependent inhibition of CYP3A4 mRNA expression
